US7396944B2, “Thiophene derivatives, their manufacture and use as pharmaceutical agents” (Hoffmann-La Roche Inc., priority 2004, dated 2008)

Tested on: HT-29 cells (human colon carcinoma cell line)
Experiment: MTT assay on HT-29 human colon carcinoma cell line
Type: cell-based
Conditions: Homo sapiens, 120 h, MTT assay after 5 days, read-out: IC90 HT29
Protocol: To show the activity of the compounds according to this invention, their effects on a human colon carcinoma cell line was evaluated using a standard MTT-assay. MTT (3-(4,5-dimethylthiazol-2-yl)-2,5-diphenyl tetrazolium bromide) is widely used for the quantitative determination of cytotoxic effects or in vitro chemosensitivity of tumor cells. The assay is based on the cleavage of the yellow tetrazolium salt (MTT) to purple formazan crystals by metabolic active cells. For details, see Rubinstein, L. V., et al., J. Natl. Cancer Inst. 82 (1990) 1113-1118.
We proceeded as follows: HT-29 cells (human colon carcinoma cell line, ATCC-No. HTB-38) were cultivated in RPMI 1640 medium with GlutaMAX™ I (Invitrogen, Cat-No. 61870-010), 2.5% fetal calf serum (FCS, Sigma Cat-No. F4135 (FBS)), 2 mM glutamine, 100 units/ml penicillin, 100 μg/ml streptomycin (=Pen/Strep from Invitrogen Cat. No. 15140). For the assay the cells were seeded in 384 well plates, 900 cells per well, in the same medium. At the next day, the compounds (dissolved 10 mM in DMSO) were added in various concentrations ranging from 30 μM to 1.5 nM. After 5 days, the MTT assay was done mainly according to the instructions of the manufacturer (Cell proliferation kit I, MTT, from Roche Molecular Biochemicals). In brief: MTT labeling reagent was added to a final concentration of 0.5 mg/ml, added and incubated for 4 hrs at 37° C., 5% CO2. During this incubation time purple formazan crystals are formed. After addition of the solubilization solution (20% Sodium Dodecyl Sulfate (SDS) in 0.02 M HCl) the plates were incubated overnight at 37° C., 5% CO2. After careful mixing, the plates were measured in Victor 2 (scanning multiwell spectrophotometer, Wallac) at 550 nm.
A decrease in number of living cells results in a decrease in the total metabolic activity in the sample. The decrease directly correlates to the amount of purple colour resulting from the solubilization of the purple formazan crystals. Determination of IC90 was done using XL-fit (XLfit software (ID Business Solution Ltd., Guilford, Surrey, UK)).

Row | Compound | IC90 [nM]
1 | CC(NC(=O)c1ccc(C(=O)NO)s1)c1cccc(-c2ccc(F)cc2)c1 (stereo not drawn) [Example 2-8, Thiophene-2,5-dicarboxylic acid 2-{[1-(4′-fluoro-biphenyl-3-yl)-ethyl]-amide} 5-hydroxyamide] | 100 to 500
2 | CC(NC(=O)c1ccc(C(=O)NO)s1)c1ccccc1 (stereo not drawn) [Reference compound, reference compound] | 1120

Same assay, conditions: MTT assay after 5 days, read-out: IC90 HT29

Row | Compound | IC90 [nM]
3 | CC(NC(=O)c1ccc(C(=O)NO)s1)c1cccc(-c2cc3ccccc3s2)c1 (stereo not drawn) [Example 2-14, Thiophene-2,5-dicarboxylic acid 2-{[1-(3-benzo[b]thiophen-2-yl-phenyl)-ethyl]-amide} 5-hydroxyamide] | 70
4 | COc1ccccc1-c1ccc(C(C)NC(=O)c2ccc(C(=O)NO)s2)s1 (stereo not drawn) [Example 3-1, Thiophene-2,5-dicarboxylic acid 2-hydroxyamide 5-({1-[5-(2-methoxy-phenyl)-thiophen-2-yl]-ethyl}-amide)] | 110

Biological target: T1, recombinant HDAC-1 (Homo sapiens, UniProt Q13547)
T1 construct: made in house; host or cells: HEK 293 cells (ATCC-No. CRL 1573)
Experiment: HDAC biochemical quench assay
Conditions: recombinant HDAC-1 purified from HEK 293 cells, histone H4 peptide substrate 1 μM, 90 min
Excerpt: The function of histone deacetylase (HDAC) is the deacetylation of lysines in e.g. histone H4. A peptide of 17 amino acids derived from histone H4 was labeled with tetramethylrhodamine (TAMRA, fluorophore, Invitrogen) at the C-terminus and QSY-7™ (quencher dye, Invitrogen) at the N-terminus and was used as a substrate (TAMRA-first 17 aa of histone H4-QSY7). Following deacetylation by HDAC, the enzyme Lys C is able to cleave the peptide after lysine. […] Inhibition of HDAC by compounds results in low signals because Lys C could not cleave the substrate and the quench effect persists.
For dose response curves, 10 concentrations were diluted 1:3 starting at 30 μM. 10 μl compound dilution were put into each well of a 384 well plate. 10 μl HDAC were added (recombinant HDAC-1 purified from HEK 293 cells (human embryonic kidney cell line transformed by Adenovirus 5 fragments, ATCC-No. CRL 1573); enzyme activity has to be assessed for each preparation). 10 μl peptide substrate was added (1 μM final concentration, derived from 1 mM stock solution diluted 1:1000 in test buffer). After 90 min incubation at room temperature, the reaction was stopped by addition of 20 μl test buffer including 3 μg/ml Lys C and 0.075% Sodium Dodecyl Sulfate (SDS). After overnight incubation the fluorescence signal of TAMRA was measured (Victor 2 from Wallac, absorption 544 nm, emission 590 nm). The O.D. of DMSO (dimethylsulfoxide)-treated control wells is 100%, the % inhibition of compound treated wells is calculated in relation to 100%. Based on 10 concentrations an IC50 curve is generated by using XLfit3 (XLfit software (ID Business Solution Ltd., Guilford, Surrey, UK)).
Test buffer used: a mixture of 10 mM 4-(2-hydroxyethyl)-1-piperazineethanesulfonic acid (HEPES) pH8, 10 mM NaCl, 10% Glycerol, 0.005% Triton X100™, 0.1 mM ethylenediaminetetraacetic acid (EDTA), 0.1 mM Tris(2-carboxyethyl)phosphine (TCEP). Used plates: 384 well plates (black, Greiner, 781077).

T1 sequence (Q13547 whole entry, species assumed): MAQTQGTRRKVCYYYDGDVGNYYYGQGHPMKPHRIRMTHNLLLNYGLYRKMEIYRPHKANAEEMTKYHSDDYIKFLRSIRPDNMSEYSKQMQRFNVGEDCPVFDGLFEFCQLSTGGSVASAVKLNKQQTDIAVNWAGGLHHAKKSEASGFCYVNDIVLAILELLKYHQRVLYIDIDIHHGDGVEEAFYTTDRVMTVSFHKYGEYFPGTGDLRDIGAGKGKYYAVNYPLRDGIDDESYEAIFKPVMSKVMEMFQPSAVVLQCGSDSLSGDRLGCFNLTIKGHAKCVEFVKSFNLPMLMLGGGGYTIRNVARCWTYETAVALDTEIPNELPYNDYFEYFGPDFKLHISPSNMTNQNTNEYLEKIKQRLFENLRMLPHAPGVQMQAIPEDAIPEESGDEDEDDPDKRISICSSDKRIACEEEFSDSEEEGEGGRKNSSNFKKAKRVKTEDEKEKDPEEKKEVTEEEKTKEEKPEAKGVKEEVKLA

Row | Compound | IC50 [nM]
5 | CC(NC(=O)c1ccc(C(=O)NO)s1)c1ccc(-c2ccc(N(C)C)cc2)cc1 (stereo not drawn) [Example 1-2, Thiophene-2,5-dicarboxylic acid 2-{[1-(4′-dimethylamino-biphenyl-4-yl)-ethyl]-amide} 5-hydroxyamide] | 3 to 6
6 | CC(NC(=O)c1ccc(C(=O)NO)s1)c1cccc(-c2ccc(F)cc2)c1 (stereo not drawn) [Example 2-8, Thiophene-2,5-dicarboxylic acid 2-{[1-(4′-fluoro-biphenyl-3-yl)-ethyl]-amide} 5-hydroxyamide] | 2.52
7 | CC(NC(=O)c1ccc(C(=O)NO)s1)c1cccc(-c2cn[nH]c2)c1 (stereo not drawn) [Example 2-18, Thiophene-2,5-dicarboxylic acid 2-hydroxyamide 5-({1-[3-(1H-pyrazol-4-yl)-phenyl]-ethyl}-amide)] | < 3
8 | CC(NC(=O)c1ccc(C(=O)NO)s1)c1ccc(-c2cccc(F)c2)s1 (stereo not drawn) [Example 3-9, Thiophene-2,5-dicarboxylic acid 2-({1-[5-(3-fluoro-phenyl)-thiophen-2-yl]-ethyl}-amide) 5-hydroxyamide] | 3 to 6
9 | CC(NC(=O)c1ccc(C(=O)NO)s1)c1ccc(-c2ccccc2F)s1 (stereo not drawn) [Example 3-12, Thiophene-2,5-dicarboxylic acid 2-({1-[5-(2-fluoro-phenyl)-thiophen-2-yl]-ethyl}-amide) 5-hydroxyamide] | 4.11
10 | C[C@@H](NC(=O)c1ccc(C(=O)NO)s1)c1ccc(N2CCOCC2)cc1 [Example 4-1, (R)-Thiophene-2,5-dicarboxylic acid 2-hydroxyamide 5-{[1-(4-morpholin-4-yl-phenyl)-ethyl]-amide}] | 3 to 6
11 | CC(NC(=O)c1ccc(C(=O)NO)s1)c1ccc(N2CCCCC2)cc1 (stereo not drawn) [Example 4-3, Thiophene-2,5-dicarboxylic acid 2-hydroxyamide 5-{[1-(4-piperidin-1-yl-phenyl)-ethyl]-amide}] | < 3
12 | CC(NC(=O)c1ccc(C(=O)NO)s1)c1ccccc1 (stereo not drawn) [Reference compound, reference compound] | 3.12
